Data taken from publication PMC3673989, “Effect of Single Amino Acid Substitution Observed in Cancer on Pim-1 Kinase Thermodynamic Stability and Structure” (PLoS ONE, 2013).

Key:
Pim-1 wild type [1] = biological target: T1, Pim-1 wild type (Homo sapiens, UniProt P11309); format: biochemical; details: ATP as substrate, wild type protein
T1 construct: hexahistidine tag (TEV-cleavable) (cleaved yes); made in house; host or cells: E. coli BL21(DE3)
Method: (§1) Phosphorylation reaction was monitored using a coupled-enzyme assay in which ADP production is coupled to NADH oxidation by pyruvate kinase and lactate dehydrogenase. […] In the Caliper mobility shift assays kinase reactions were analyzed by microfluidic capillary electrophoresis. The final assay buffer was 50 mM HEPES, pH 7.5, 1 mM DTT, 0.02% Tween 20, 0.02% BSA, 10 mM beta-glycerophosphate, 0.01 mM Na3VO4, 0.6% DMSO, 8 mM MgCl2, 2 µM peptide and 0.2 nM kinase. The reactions were started by addition of substrate mix consisting of ATP and peptide substrate to kinase and inhibitor solution. ATP concentrations were adjusted to the Kmvalues of the specific Pim enzyme. After incubation for 60 min at 30°C reactions were terminated with 100 mM HEPES pH 7.5, 5% DMSO, 0.1% coating reagent (Caliper Lifescience) 10 mM EDTA pH 8.0, 0.015% Brij35. Levels of substrate and product were quantified by measuring the laser-induced fluorescence intensities of fluorescein labels of the peptide.

Pim-1 E124Q = biological target: T2, Pim-1 E124Q (Homo sapiens, UniProt P11309, E124Q); assay: Inhibitor binding by temperature shift assay (SYPRO Orange); details: Pim-1 E124Q 2 µM, compound 10 µM
T2 construct: hexahistidine tag (TEV-cleavable) (cleaved yes); made in house; host or cells: E. coli BL21(DE3)
T2 sequence (P11309 whole entry E124Q): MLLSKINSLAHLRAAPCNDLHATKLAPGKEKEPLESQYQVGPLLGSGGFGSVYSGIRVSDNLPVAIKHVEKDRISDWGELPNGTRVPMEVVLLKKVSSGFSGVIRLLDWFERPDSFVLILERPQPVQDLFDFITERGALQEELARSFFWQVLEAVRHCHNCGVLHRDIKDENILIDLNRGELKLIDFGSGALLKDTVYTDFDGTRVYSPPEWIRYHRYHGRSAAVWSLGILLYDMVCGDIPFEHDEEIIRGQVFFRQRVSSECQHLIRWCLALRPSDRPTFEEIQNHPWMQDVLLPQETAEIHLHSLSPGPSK
Method: (§2) Thermal melting experiments were carried out using an Mx3005p Real Time PCR machine (Stratagene). Proteins were buffered in 10 mM HEPES pH 7.5, 500 mM NaCl and assayed in a 96-well plate at a final concentration of 2 µM in 20 µl volume. Compounds were added at a final concentration of 10 µM. SYPRO Orange (Molecular Probes) was added as a fluorescence probe at a dilution of 1∶1000. […] Data was analysed as previously described.

Pim-1 E142D = biological target: T3, Pim-1 E142D (Homo sapiens, UniProt P11309, E142D); assay: as above; details: Pim-1 E142D 2 µM, compound 10 µM
T3 construct: hexahistidine tag (TEV-cleavable) (cleaved yes); made in house; host or cells: E. coli BL21(DE3)
T3 sequence (P11309 whole entry E142D): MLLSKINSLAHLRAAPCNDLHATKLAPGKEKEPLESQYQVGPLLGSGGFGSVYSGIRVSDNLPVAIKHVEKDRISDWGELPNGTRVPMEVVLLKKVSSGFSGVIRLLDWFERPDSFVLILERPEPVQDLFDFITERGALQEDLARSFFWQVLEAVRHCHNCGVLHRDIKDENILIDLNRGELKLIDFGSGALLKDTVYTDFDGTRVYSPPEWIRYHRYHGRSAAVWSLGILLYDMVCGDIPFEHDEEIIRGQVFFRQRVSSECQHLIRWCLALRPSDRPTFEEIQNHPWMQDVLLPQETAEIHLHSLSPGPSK
Method: as §2

Pim-1 E135K = biological target: T4, Pim-1 E135K (Homo sapiens, UniProt P11309, E135K); assay: as above; details: Pim-1 E135K 2 µM, compound 10 µM
T4 construct: hexahistidine tag (TEV-cleavable) (cleaved yes); made in house; host or cells: E. coli BL21(DE3)
T4 sequence (P11309 whole entry E135K): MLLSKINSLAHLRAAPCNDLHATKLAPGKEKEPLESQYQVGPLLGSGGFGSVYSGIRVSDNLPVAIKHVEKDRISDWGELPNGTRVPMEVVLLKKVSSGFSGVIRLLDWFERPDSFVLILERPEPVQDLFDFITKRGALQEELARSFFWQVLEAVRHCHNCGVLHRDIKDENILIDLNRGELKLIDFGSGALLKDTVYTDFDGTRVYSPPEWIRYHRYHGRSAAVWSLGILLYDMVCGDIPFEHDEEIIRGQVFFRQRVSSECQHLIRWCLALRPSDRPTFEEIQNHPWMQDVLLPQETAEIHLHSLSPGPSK
Method: as §2

Pim-1 Y53H [2] = biological target: T5, Pim-1 Y53H (Homo sapiens, UniProt P11309, Y53H); assay: as above; details: Pim-1 Y53H 2 µM, compound 10 µM
T5 construct: hexahistidine tag (TEV-cleavable) (cleaved yes); made in house; host or cells: E. coli BL21(DE3)
T5 sequence (P11309 whole entry Y53H): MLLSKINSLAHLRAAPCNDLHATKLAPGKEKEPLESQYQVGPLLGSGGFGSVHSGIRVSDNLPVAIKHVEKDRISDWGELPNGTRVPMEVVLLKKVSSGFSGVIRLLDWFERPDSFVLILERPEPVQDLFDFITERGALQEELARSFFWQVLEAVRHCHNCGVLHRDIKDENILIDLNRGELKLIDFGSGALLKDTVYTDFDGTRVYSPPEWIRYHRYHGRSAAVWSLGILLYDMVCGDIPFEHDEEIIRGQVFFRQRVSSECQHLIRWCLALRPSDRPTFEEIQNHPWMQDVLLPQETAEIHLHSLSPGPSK
Method: as §2

Pim-1 wild type [3] = biological target: T1, Pim-1 wild type; assay: as above; details: Pim-1 wild type 2 µM, compound 10 µM
Method: as §2

Pim-1 Y53H [4] = biological target: T5, Pim-1 Y53H; assay: Caliper mobility shift kinase assay; format: biochemical; details: Y53H relative to Pim-1 wild type
Method: as §1

Pim-1 variants = assay: Caliper mobility shift kinase assay; format: biochemical, human; details: exception K00487 and K00207a for Y53H
Method: as §1

T1 sequence (P11309 whole entry): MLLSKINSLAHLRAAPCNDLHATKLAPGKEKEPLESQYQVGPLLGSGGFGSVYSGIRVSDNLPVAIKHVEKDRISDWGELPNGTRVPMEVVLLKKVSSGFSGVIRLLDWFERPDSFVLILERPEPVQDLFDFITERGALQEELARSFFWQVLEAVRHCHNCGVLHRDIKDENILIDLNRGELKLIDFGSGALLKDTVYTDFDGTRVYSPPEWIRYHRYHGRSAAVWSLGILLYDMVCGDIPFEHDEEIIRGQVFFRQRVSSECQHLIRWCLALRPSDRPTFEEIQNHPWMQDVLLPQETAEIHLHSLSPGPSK

ΔTm (Pim-1 E124Q) [K]	ΔTm (Pim-1 E142D) [K]	ΔTm (Pim-1 E135K) [K]	ΔTm (Pim-1 Y53H [2]) [K]	ΔTm (Pim-1 wild type [3]) [K]	fold increase of IC50 versus wild type (Pim-1 Y53H [4]) [fold]	IC50 for Pim-1 variants compared with wild type (Pim-1 variants)	SMILES	Km (Pim-1 wild type [1]) [µM]
–	–	–	–	–	–	–	Nc1ncnc2c1ncn2[C@@H]1O[C@H](COP(=O)(O)OP(=O)(O)OP(=O)(O)O)[C@@H](O)[C@H]1O [ATP]	205
4.9	4.8	5.9	4.5	6.0	–	–	COCCNc1ccc2ncc(-c3cccc(Cl)c3)n2n1 [K00478]	–
7.6	8.1	7.5	7.0	7.7	1.8	closely similar	CCC(CO)Nc1ccc2ncc(-c3cccc(OC(F)(F)F)c3)n2n1 (centres unmarked) [K00487]	–
5.6	6.6	6.0	5.9	5.5	–	–	Clc1ccc(-c2cnc3ccc(NC4CCOCC4)nn23)cc1 [K00499]	–
8.5	8.8	8.9	8.1	8.4	–	–	CC(C)[C@@H](CO)Nc1ccc2ncc(-c3cccc(OC(F)(F)F)c3)n2n1 [K00512]	–
6.1	6.2	7.5	5.6	6.1	–	–	CC(C)[C@@H](CO)Nc1ccc2ncc(-c3cccc(Cl)c3)n2n1 [K00514]	–
8.2	7.7	9.0	6.9	8.2	–	–	CC(C)[C@@H](CO)Nc1ccc2ncc(-c3cccc(C(F)(F)F)c3)n2n1 [K00516]	–
4.3	5.3	6.4	4.6	5.6	–	–	CC(=O)c1cccc(-c2cnc3ccc(N[C@H](CO)C(C)C)nn23)c1 [K00518]	–
5.0	6.4	6.5	5.5	6.8	–	–	FC(F)(F)Oc1cccc(-c2cnc3ccc(NCC4CC4)nn23)c1 [K00520]	–
3.3	3.3	5.2	3.3	5.1	–	–	Cn1c2c(c3ccc(Cl)c(Cl)c31)C(C#N)C1(CCOCC1)NC2=O (centres unmarked) [K01741a]	–
7.2	8.6	8.2	8.2	8.4	–	–	CCN1CCC2(CC1)NC(=O)c1c(c3ccc(Cl)c(Cl)c3n1C)C2C#N (centres unmarked) [K01786a]	–
